# Data published in PubChem BioAssay AID2060899 (Molecular Pharmacology Branch, DTP, NCI, 2025).
# Test system: 565726-208-R1-J5-PDC complex spheroids, growth inhibition
# Assay: Anticancer human tumor 565726-208-R1-J5-PDC patient-derived pancreatic adenocarcinoma cell line growth inhibition [RAS]
# Conditions: for IC50: curve of first compound; for viability, T/C: stronger effect = lower value
# Source text: RAS pathway inhibitors in Combinations in Complex Spheroids
# A high-throughput screen of multi-cell type tumor spheroids was designed to identify active combinations of RAS pathway inhibitors and targeted small molecules. Complex spheroids include a stromal component modeled by human endothelial cells (HUVEC) and fibroblasts modeled by human mesenchymal stem cells (MSCs). The concentration ranges selected for each drug and investigational agent were based upon clinically achievable concentrations if the clinical Cmax of the agent was known.
# Compounds. The drugs and investigational agents: abemaciclib (NSC768073), cobimetinib (NSC768068), divarasib (GDC6063, NSC841802), docetaxel (NSC628503), GDC-1971 (RLY-1971, NSC841576), gemcitabine (NSC613327), inavolisib (NSC800729), ipatasertib (NSC767898), KB-0742 (NSC834161), MRTX-1133 (NSC836407), osimertinib (NSC779217), RMC-4630 (NSC839698), RMC-6236 (NSC851965), RMC-6291 (NSC852671), Ro-3306 (NSC812927), sapanisertib (NSC764658), SN-38 (NSC673596), staurosporine (NSC755774), SY5609 (NSC837396), and tovorafenib (DAY101, NSC766906), were obtained from the National Cancer Institute (NCI) Developmental Therapeutics Program Chemical Repository. The FDA-approved anticancer drug set is available from the NCI Developmental Therapeutics Program. […] The stock solutions were prepared in dimethyl sulfoxide (DMSO, Sigma-Aldrich, St. Louis, MO, cat. D2650) at 800-fold the tested concentration and stored at -70 degrees C prior to their use. All drugs and investigational agents were tested over a range starting from a high concentration at or near the clinical Cmax and decreasing in half-log increments. If the clinical Cmax for an agent had not been determined, the highest concentration tested was 10 microM.
# Cell Culture. All cells were maintained in an incubator at 37 degrees C and 5% CO2 with 95% humidity. The PDC lines were cultured according to standard operating procedures established by the NCI PDMR. All PDCs were thawed and cultured in Matrigel-coated flasks prepared with a working solution of 1X Ham's F-12 nutrient mix, without supplementation (Invitrogen, Waltham, MA, cat. 11765054), 100 U/mL penicillin-streptomycin (Invitrogen, cat. 15140122), and 2.5% Matrigel (Corning Inc., Corning, NY, cat. 354248) for the first three passages. The 362531-283-R-J2-PDC and 782815-120-R-J1-PDC lines were cultured in 6C/Colon 1B media, which includes advanced DMEM/F-12 (Thermo Fisher Scientific, cat. 12634028), 10 mM HEPES (Thermo Fisher Scientific, cat. 15630080), 1X GlutaMAX supplement (Thermo Fisher Scientific, cat. 35050061), 0.1 mg/mL primocin (InvivoGen, San Diego, CA, cat. ant-pm-2), 10% defined fetal bovine serum, heat inactivated (HyClone Laboratories Inc., Logan, UT, cat. SH30070.03HI), 50% L-WRN conditioned media (ATCC, cat. CRL-3276), 1.25 mM N-Acetyl-L-cysteine (Sigma-Aldrich, cat. A9165), 10 mM nicotinamide (Sigma-Aldrich, cat. N0636), 1X B-27 supplement (Thermo Fisher Scientific, cat. 17504044), 1X N-2 supplement (Thermo Fisher Scientific, cat. 17502048), 50 ng/mL human EGF (Thermo Fisher Scientific, cat. PHG0311), and 10 microM Y-27632 dihydrochloride (Tocris Bioscience, cat. 1254). The K12877-001-R-J1-PDC line was cultured in 6I media, which includes all 6C/Colon 1B media plus 10 ng/mL human FGF-10 (PeproTech, cat. 100-26), 1 ng/mL human FGF-2 (PeproTech, cat. 100-18B), 1 µM prostaglandin E2 (Tocris Bioscience, cat. 2296), […] hydrocortisone (Sigma-Aldrich, cat. H4001), and […] bovine insulin (Sigma-Aldrich, cat. I6634). The K86415-001-R-J1-PDC line was cultured in 6D media, which includes all 6C/Colon 1B media components minus the L-WRN conditioned media. The 485176-168-R4-J1-PDC was cultured in PANC media, which includes all 6C/Colon 1B media plus 100 ng/mL human FGF-10 (PeproTech, cat. 100-26), 500 nM SB-431542 (Selleckchem, cat. S1067), and 10 nM gastrin (Tocris Bioscience, cat. 3006). […]
# [1] = second compound 0.0316 µM, first compound 0.0316 µM
# [2] = second compound 0.0316 µM, first compound 0.1 µM
# [3] = second compound 0.0316 µM, first compound 0.316 µM
# [4] = second compound 0.0316 µM, first compound 1 µM
# [5] = second compound 0.0316 µM, first compound 3.16 µM
# [6] = second compound 0.0316 µM, first compound 10 µM
# [7] = second compound 0.1 µM, first compound 0.0316 µM
# [8] = second compound 0.1 µM, first compound 0.1 µM
# [9] = second compound 0.1 µM, first compound 0.316 µM
# [10] = second compound 0.1 µM, first compound 1 µM
# [11] = second compound 0.1 µM, first compound 3.16 µM
# [12] = second compound 0.1 µM, first compound 10 µM
# [13] = second compound 0.316 µM, first compound 0.0316 µM
# [14] = second compound 0.316 µM, first compound 0.1 µM
# [15] = second compound 0.316 µM, first compound 0.316 µM
# [16] = second compound 0.316 µM, first compound 1 µM
# [17] = second compound 0.316 µM, first compound 3.16 µM
# [18] = second compound 0.316 µM, first compound 10 µM
# [19] = second compound 1 µM, first compound 0.0316 µM
# [20] = second compound 1 µM, first compound 0.1 µM
# [21] = second compound 1 µM, first compound 0.316 µM
# [22] = second compound 1 µM, first compound 1 µM
# [23] = second compound 1 µM, first compound 3.16 µM
# [24] = second compound 1 µM, first compound 10 µM
# [25] = second compound 3.16 µM, first compound 0.0316 µM
# [26] = second compound 3.16 µM, first compound 0.1 µM
# [27] = second compound 3.16 µM, first compound 0.316 µM
# [28] = second compound 3.16 µM, first compound 1 µM
# [29] = second compound 3.16 µM, first compound 3.16 µM
# [30] = second compound 3.16 µM, first compound 10 µM
# [31] = second compound 10 µM, first compound 0.0316 µM
# [32] = second compound 10 µM, first compound 0.1 µM
# [33] = second compound 10 µM, first compound 0.316 µM
# [34] = second compound 10 µM, first compound 1 µM
# [35] = second compound 10 µM, first compound 3.16 µM
# [36] = second compound 10 µM, first compound 10 µM
# 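Further: spheroids exposed to compounds for seven days before readout.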
# 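Wherever viability, T/C is given: 100% = DMSO vehicle control viability.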
compound,measurement,setting,value
CCC(CC)c1cc(NC2CCC(N)C2)n2nccc2n1 (stereo unspecified) + C#Cc1c(F)ccc2cc(O)cc(-c3ncc4c(N5CC6CCC(C5)N6)nc(OCC56CCCN5CC(F)C6)nc4c3F)c12,IC50,second compound 0.0316 µM,1460 nM
same,IC50,second compound 0.1 µM,1250 nM
same,IC50,second compound 0.316 µM,1360 nM
same,IC50,second compound 1 µM,1030 nM
same,IC50,second compound 3.16 µM,665 nM
same,IC50,second compound 10 µM,426 nM
same,"viability, T/C",[1],111%
same,"viability, T/C",[2],163%
same,"viability, T/C",[3],113%
same,"viability, T/C",[4],74.5%
same,"viability, T/C",[5],1.28%
same,"viability, T/C",[6],1.5%
same,"viability, T/C",[7],132%
same,"viability, T/C",[8],138%
same,"viability, T/C",[9],96.9%
same,"viability, T/C",[10],70.2%
same,"viability, T/C",[11],1.11%
same,"viability, T/C",[12],1.87%
same,"viability, T/C",[13],133%
same,"viability, T/C",[14],135%
same,"viability, T/C",[15],103%
same,"viability, T/C",[16],73.3%
same,"viability, T/C",[17],1%
same,"viability, T/C",[18],1.94%
same,"viability, T/C",[19],141%
same,"viability, T/C",[20],123%
same,"viability, T/C",[21],98.8%
same,"viability, T/C",[22],58.1%
same,"viability, T/C",[23],0.9%
same,"viability, T/C",[24],1.4%
same,"viability, T/C",[25],110%
same,"viability, T/C",[26],106%
same,"viability, T/C",[27],67.4%
same,"viability, T/C",[28],44.9%
same,"viability, T/C",[29],0.63%
same,"viability, T/C",[30],1.4%
same,"viability, T/C",[31],92.3%
same,"viability, T/C",[32],83.5%
same,"viability, T/C",[33],51.5%
same,"viability, T/C",[34],37.1%
same,"viability, T/C",[35],0.25%
same,"viability, T/C",[36],0.31%
Cc1nc(N2CCC3(CC2)COC(C)C3N)c(CO)nc1Sc1ccnc(N)c1Cl (stereo unspecified) + C#Cc1c(F)ccc2cc(O)cc(-c3ncc4c(N5CC6CCC(C5)N6)nc(OCC56CCCN5CC(F)C6)nc4c3F)c12,IC50,second compound 0.0316 µM,> 10000 nM
same,IC50,second compound 0.1 µM,> 10000 nM
same,IC50,second compound 0.316 µM,> 10000 nM
same,IC50,second compound 1 µM,> 10000 nM
same,IC50,second compound 3.16 µM,313 nM
same,IC50,second compound 10 µM,229 nM
same,"viability, T/C",[1],116%
same,"viability, T/C",[2],125%
same,"viability, T/C",[3],79.6%
same,"viability, T/C",[4],77.1%
same,"viability, T/C",[5],90.7%
same,"viability, T/C",[6],104%
same,"viability, T/C",[7],103%
same,"viability, T/C",[8],112%
same,"viability, T/C",[9],71.6%
same,"viability, T/C",[10],72.8%
same,"viability, T/C",[11],92.4%
same,"viability, T/C",[12],101%
same,"viability, T/C",[13],130%
same,"viability, T/C",[14],108%
same,"viability, T/C",[15],74.5%
same,"viability, T/C",[16],67.8%
same,"viability, T/C",[17],90.2%
same,"viability, T/C",[18],80.3%
same,"viability, T/C",[19],119%
same,"viability, T/C",[20],106%
same,"viability, T/C",[21],55.8%
same,"viability, T/C",[22],53.4%
same,"viability, T/C",[23],57.8%
same,"viability, T/C",[24],71.1%
same,"viability, T/C",[25],108%
same,"viability, T/C",[26],94.5%
same,"viability, T/C",[27],49.6%
same,"viability, T/C",[28],42.8%
same,"viability, T/C",[29],46%
same,"viability, T/C",[30],57.3%
same,"viability, T/C",[31],80.9%
same,"viability, T/C",[32],66.1%
same,"viability, T/C",[33],43.5%
same,"viability, T/C",[34],35.9%
same,"viability, T/C",[35],34.6%
same,"viability, T/C",[36],33%
NC1c2ccccc2OC12CCN(c1cnc3c(N4CCCc5ncccc54)n[nH]c3n1)CC2 (stereo unspecified) + C#Cc1c(F)ccc2cc(O)cc(-c3ncc4c(N5CC6CCC(C5)N6)nc(OCC56CCCN5CC(F)C6)nc4c3F)c12,IC50,second compound 0.0316 µM,> 10000 nM
same,IC50,second compound 0.1 µM,> 10000 nM
same,IC50,second compound 0.316 µM,> 10000 nM
same,IC50,second compound 1 µM,838 nM
same,IC50,second compound 3.16 µM,283 nM
same,IC50,second compound 10 µM,88.2 nM
same,"viability, T/C",[1],85.3%
same,"viability, T/C",[2],107%
same,"viability, T/C",[3],70.4%
same,"viability, T/C",[4],58.8%
same,"viability, T/C",[5],67.3%
same,"viability, T/C",[6],73.1%
same,"viability, T/C",[7],91.6%
same,"viability, T/C",[8],101%
same,"viability, T/C",[9],74.4%
same,"viability, T/C",[10],58.1%
same,"viability, T/C",[11],64.7%
same,"viability, T/C",[12],78.4%
same,"viability, T/C",[13],104%
same,"viability, T/C",[14],105%
same,"viability, T/C",[15],62%
same,"viability, T/C",[16],51.2%
same,"viability, T/C",[17],56.2%
same,"viability, T/C",[18],57.4%
same,"viability, T/C",[19],97.9%
same,"viability, T/C",[20],88.2%
same,"viability, T/C",[21],53.3%
same,"viability, T/C",[22],46.4%
same,"viability, T/C",[23],50.3%
same,"viability, T/C",[24],51.3%
same,"viability, T/C",[25],82.6%
same,"viability, T/C",[26],75.3%
same,"viability, T/C",[27],47.5%
same,"viability, T/C",[28],36.4%
same,"viability, T/C",[29],32.6%
same,"viability, T/C",[30],40.4%
same,"viability, T/C",[31],63%
same,"viability, T/C",[32],48.4%
same,"viability, T/C",[33],29.6%
same,"viability, T/C",[34],28.9%
same,"viability, T/C",[35],28%
same,"viability, T/C",[36],25.8%
